{"source": "paper PMC7900708", "about": "(Biochemistry and Biophysics Reports, 2021)", "key": {"[1]": {"test_system": "uracil DNA glycosylase", "conditions": "cited from earlier work"}, "[2]": {"biological_target": "T1, MtuUng (Mycobacterium tuberculosis uracil DNA glycosylase) (Mycobacterium tuberculosis, UniProt P9WFQ9)", "T1 sequence (P9WFQ9 1-227)": "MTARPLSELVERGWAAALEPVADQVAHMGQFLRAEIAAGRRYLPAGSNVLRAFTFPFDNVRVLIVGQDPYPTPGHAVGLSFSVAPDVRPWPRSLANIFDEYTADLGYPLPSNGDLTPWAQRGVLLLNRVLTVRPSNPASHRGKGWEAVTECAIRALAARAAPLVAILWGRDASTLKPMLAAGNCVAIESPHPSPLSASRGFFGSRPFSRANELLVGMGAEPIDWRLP", "test": "Molecular beacon fluorescence assay of MtuUng activity and inhibition", "format": "biochemical"}}}
{"smiles": "O=c1cc[nH]c(=O)[nH]1", "note": "[Uracil]", "values": [{"measurement": "mode of inhibition", "setting": "[1]", "result": "non-competitive"}, {"measurement": "IC50", "setting": "[2]", "result": "2.05 ± 0.3", "unit": "mM"}]}
{"smiles": "O=c1[nH]cc(F)c(=O)[nH]1", "note": "[5-Fluoro-Uracil]", "values": [{"measurement": "IC50", "setting": "[2]", "result": "50.2 ± 3.85", "unit": "mM"}]}
{"smiles": "O=[N+]([O-])c1cnc(O)nc1O", "note": "[5-Nitro-Uracil]", "values": [{"measurement": "IC50", "setting": "[2]", "result": "10.8 ± 0.32", "unit": "mM"}]}
{"smiles": "O=c1[nH]cc(Br)c(=O)[nH]1", "note": "[5-Bromo-Uracil]", "values": [{"measurement": "IC50", "setting": "[2]", "result": "13.6 ± 0.73", "unit": "mM"}]}
{"smiles": "O=c1[nH]ccc(=S)[nH]1", "note": "[4-Thio-Uracil]", "values": [{"measurement": "IC50", "setting": "[2]", "result": "3.57 ± 0.35", "unit": "mM"}]}
{"smiles": "O=c1[nH]cc(Cl)c(=O)[nH]1", "note": "[5-Chloro-Uracil]", "values": [{"measurement": "IC50", "setting": "[2]", "result": "8.71 ± 0.7", "unit": "mM"}, {"measurement": "Ki", "setting": "[2]", "result": 7.04, "unit": "mM"}, {"measurement": "type of inhibition (Lineweaver-Burk plot)", "setting": "[2]; different inhibitor concentrations, 0.3 nM MtuUng", "result": "linear mixed inhibition"}]}
{"smiles": "Nc1c[nH]c(=O)[nH]c1=O", "note": "[5-Amino-Uracil]", "values": [{"measurement": "IC50", "setting": "[2]", "result": "7.18 ± 0.97", "unit": "mM"}]}
{"smiles": "O=C1CC(=O)NC(=O)N1", "note": "[Barbituric acid]", "values": [{"measurement": "IC50", "setting": "[2]", "result": "7.29 ± 0.32", "unit": "mM"}]}
{"smiles": "O=c1[nH]cc(I)c(=O)[nH]1", "note": "[5-Iodo-Uracil]", "values": [{"measurement": "IC50", "setting": "[2]", "result": "4.92 ± 0.51", "unit": "mM"}]}
